Data taken from article PMC4965013, “Open Source Drug Discovery with the Malaria Box Compound Collection for Neglected Diseases and Beyond” (PLoS Pathogens, 2016).
pEC50: −log10 of the molar value. Converted amounts (≈) assume the structure as drawn.

Columns and labels:
cruzain = cruzain (Trypanosoma cruzi, UniProt P25779); assay: cruzain Z-FR-AMC cleavage; type: biochemical; conditions: 500 nM
Protocol: (§1) Cysteine Protease Inhibitors Cruzain and Rhodesain, Ferreira group (data presented first in this paper). Recombinant cruzain was gently provided by Allison Doak and Dr. Brian Shoichet (University of California, San Francisco), while rhodesain was kindly provided by Dr. Conor Caffrey (Center for Discovery and Innovation in Parasitic Diseases, Skaggs School of Pharmacy and Pharmaceutical Sciences, University of California San Diego). Cruzain and rhodesain activity were measured as previously described, (Ferreira et al., 2010) by monitoring the cleavage of the fluorogenic substrate Z-Phe-Argaminomethylcoumarin (Z-FR-AMC) in a Synergy 2 (Biotek), from the Center of Flow Cytometry and Fluorimetry at the Biochemistry and Immunology Department (Universidade Federal de Minas Gerais, UFMG). Formation of fluorescent 4-amino-7-metyhlcoumarin was measured employing 340 nm wavelength for excitation and 440 nm for emission. […] Initially compounds were pre-incubated with the enzyme for 10 minutes in 100 µL assay buffer, then 100 µL of 5 μM substrate solution was added and the reaction was immediately monitored. Assays were performed in duplicate, followed for 5 min and activity was calculated based on initial velocities. […] Reported values refer to average and standard errors calculated based on duplicates. […] Data was analyzed with Prism 5.0 (GraphPad). […]

rhodesain = rhodesain (Trypanosoma brucei rhodesiense, UniProt Q95PM0); assay: rhodesain Z-FR-AMC cleavage; type: biochemical; conditions: 500 nM
Protocol: as §1

P. falciparum HB3 = assay: Stage-specificity / mitochondrial integrity image assay Ayong; type: cell-based; conditions: 10µM
PK7 = tested on: PK7; set-up: method as in ref [25] (a number printed in a supplementary file, which may have a reference list of its own: not looked up in the article's list); conditions: control 100 µM; compounds 1 µM; ref [25]; cited from earlier work
MAPK2 = tested on: MAPK2; set-up: method as in ref [25] (a number printed in a supplementary file, which may have a reference list of its own: not looked up in the article's list); conditions: control 100 µM; compounds 1 µM; ref [25]; cited from earlier work
[1] = biological target: Pf KRS Lysyl-tRNA Synthetase (Plasmodium falciparum, UniProt Q8IDJ8); assay: PfKRS Kinase-Glo aminoacylation; conditions: control 1µM; compounds 10 µM
A. ceylanicum L3 larvae = A. ceylanicum L3 larvae J. Keiser; type: cell-based, Ancylostoma ceylanicum; conditions: 200µM
T. muris L1 larvae = T. muris L1 larvae J. Keiser; type: cell-based, Trichuris muris; conditions: 100µM
[2] = tested on: Naegleria fowleri trophozoites; assay: Naegleria fowleri CellTiter-Glo; type: cell-based; conditions: Naegleria fowleri
How it was run: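 Growth inhibition of Naegleria fowleri trophozoites in vitro, read as cellular ATP by CellTiter-Glo 2.0 luminescence in lysed cells, output in relative light units.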

Staphylococcus aureus = assay: S. aureus agar spot / MIC Baker; conditions: read-out: Minimum Inhibitory Concentrations (MIC) S. aureus
[3] = tested on: Acinetobacter baumannii ATCC 19606; assay: A. baumannii agar spot / MIC Baker; conditions: ATCC19606, read-out: Minimum Inhibitory Concentrations (MIC) A. baumanii
[4] = tested on: P. falciparum 3D7 trophozoites; assay: Metabolomic fingerprint profiling LC-MS; type: cell-based, Plasmodium falciparum; set-up: UDP-D-glucose / ADP-D-glucose: unit not given here
P. falciparum = assay: EC50 listed in S2 Table Metabolomics (used to set the concentration tested); type: cell-based; conditions: Plasmodium falciparum; EC50 used for Factor_XEC50 in metabolomics; read-out: EC50_nM
PfEg5 = tested on: PfEg5; set-up: method as in ref [29] (a number printed in a supplementary file, which may have a reference list of its own: not looked up in the article's list); conditions: ref [29]; cited from earlier work
PvEg5 = tested on: PvEg5; set-up: method as in ref [29] (a number printed in a supplementary file, which may have a reference list of its own: not looked up in the article's list); conditions: ref [29]; cited from earlier work
[5] = biological target: Pf ProRS Prolyl-tRNA synthetase (Plasmodium falciparum, UniProt Q8I5R7); assay: PfProRS Kinase-Glo aminoacylation; conditions: control 1µM; compounds 10 µM
[6] = metabolite level change after treatment

Chain of rhodesain (Q95PM0 entry or part of it): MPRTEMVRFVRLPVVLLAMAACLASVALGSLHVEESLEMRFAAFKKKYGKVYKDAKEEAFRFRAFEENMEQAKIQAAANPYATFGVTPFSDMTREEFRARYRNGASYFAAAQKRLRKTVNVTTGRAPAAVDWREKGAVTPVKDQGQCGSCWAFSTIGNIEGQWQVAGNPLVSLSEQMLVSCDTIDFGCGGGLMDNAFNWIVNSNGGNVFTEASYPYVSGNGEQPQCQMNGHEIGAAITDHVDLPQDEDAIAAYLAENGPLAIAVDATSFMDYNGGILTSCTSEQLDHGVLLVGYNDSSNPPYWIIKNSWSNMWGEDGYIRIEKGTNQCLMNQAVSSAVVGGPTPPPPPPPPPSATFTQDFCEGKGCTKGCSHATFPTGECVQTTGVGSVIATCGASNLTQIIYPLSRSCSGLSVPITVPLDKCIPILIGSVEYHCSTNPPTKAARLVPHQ
Chain of cruzain (P25779 123-337): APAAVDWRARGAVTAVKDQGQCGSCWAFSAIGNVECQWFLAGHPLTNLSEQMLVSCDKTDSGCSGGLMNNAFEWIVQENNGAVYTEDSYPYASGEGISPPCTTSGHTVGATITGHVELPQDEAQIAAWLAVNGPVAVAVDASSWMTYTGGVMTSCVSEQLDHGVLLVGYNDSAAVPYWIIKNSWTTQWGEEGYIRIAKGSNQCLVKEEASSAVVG
Chain of Pf KRS Lysyl-tRNA Synthetase (Q8IDJ8 entry or part of it): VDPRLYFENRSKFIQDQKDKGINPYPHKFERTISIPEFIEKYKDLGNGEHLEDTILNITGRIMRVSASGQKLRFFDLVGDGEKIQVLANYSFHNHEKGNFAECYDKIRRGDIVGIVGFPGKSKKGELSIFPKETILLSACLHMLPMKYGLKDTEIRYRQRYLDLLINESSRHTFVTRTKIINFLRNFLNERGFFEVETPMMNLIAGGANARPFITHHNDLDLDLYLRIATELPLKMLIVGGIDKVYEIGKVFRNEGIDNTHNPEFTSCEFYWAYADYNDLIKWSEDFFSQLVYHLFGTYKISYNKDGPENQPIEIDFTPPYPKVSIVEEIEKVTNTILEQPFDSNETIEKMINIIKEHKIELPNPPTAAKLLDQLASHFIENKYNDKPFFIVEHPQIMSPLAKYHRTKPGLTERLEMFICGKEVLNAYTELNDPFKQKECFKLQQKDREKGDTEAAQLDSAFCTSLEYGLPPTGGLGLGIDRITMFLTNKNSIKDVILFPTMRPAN
Chain of Pf ProRS Prolyl-tRNA synthetase (Q8I5R7 8-746): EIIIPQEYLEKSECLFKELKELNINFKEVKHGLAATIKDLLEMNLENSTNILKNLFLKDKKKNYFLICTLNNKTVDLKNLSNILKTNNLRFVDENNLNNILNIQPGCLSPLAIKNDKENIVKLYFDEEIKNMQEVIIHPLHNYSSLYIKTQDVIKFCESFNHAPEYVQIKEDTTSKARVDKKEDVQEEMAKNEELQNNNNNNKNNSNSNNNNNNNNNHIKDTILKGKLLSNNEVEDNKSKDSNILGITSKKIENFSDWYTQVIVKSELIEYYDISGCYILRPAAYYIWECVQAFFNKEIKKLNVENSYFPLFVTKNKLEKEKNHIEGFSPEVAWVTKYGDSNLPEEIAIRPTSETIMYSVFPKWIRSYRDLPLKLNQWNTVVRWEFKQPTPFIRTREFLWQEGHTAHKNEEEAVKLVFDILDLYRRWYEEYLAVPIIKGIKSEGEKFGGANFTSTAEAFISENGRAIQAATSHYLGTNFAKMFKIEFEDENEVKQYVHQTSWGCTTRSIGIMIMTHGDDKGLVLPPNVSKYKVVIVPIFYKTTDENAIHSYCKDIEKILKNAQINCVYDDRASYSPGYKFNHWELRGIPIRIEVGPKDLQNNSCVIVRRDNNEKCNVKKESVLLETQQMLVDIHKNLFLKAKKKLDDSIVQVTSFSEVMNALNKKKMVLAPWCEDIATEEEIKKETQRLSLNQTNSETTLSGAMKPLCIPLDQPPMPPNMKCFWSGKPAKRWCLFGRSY

CC(C)C[C@H](NC(=O)[C@H]1O[C@@H]1C(=O)O)C(=O)NCCCCN=C(N)N (relative stereo) [E-64, trans-Epoxysuccinyl-L-leucylamido-(4-guanidino) butane]
cruzain % inhibition (cruzain): approximately 100%
rhodesain % inhibition (rhodesain): approximately 100%
Effects on asexual life cycle progression (treatment at ER, LR, T, S; merozoites; mitochondrial integrity) (P. falciparum HB3): X-S-S-X-o-o

CC(C)(C)n1nc(-c2cccc3ccccc23)c2c(N)ncnc21 [1NA-PP1]
PK7 % inhibition (PK7): > 80%

Nc1ncnc2c1ncn2[C@@H]1O[C@H](COP(=O)(O)OP(=O)(O)NP(=O)(O)O)[C@@H](O)[C@H]1O [AMP-PNP]
MAPK2 % inhibition (MAPK2): > 80%

C[C@H]1CCC[C@H](C[C@H]2Cc3cc(O)cc(O)c3C(=O)O2)O1 [Cladosporin]
PfKRS % inhibition [1]: 100%

c1ccc([C@H]2CN3CCSC3=N2)cc1 [Levamisole, reference compound]
A. ceylanicum positive control effect (A. ceylanicum L3 larvae): caused death of all worms
T. muris positive control effect (T. muris L1 larvae): caused death of all worms

O=C(Nc1cccc(C(F)(F)F)c1)c1cc(Cl)ccc1O [MMV665807]
pEC50 [2]: 5.96
MIC (Staphylococcus aureus): 1.25 to 5 µM (≈ 0.395 to 1.58 µg/mL)
MIC [3]: 1.25 to 5 µM (≈ 0.395 to 1.58 µg/mL)

O=C(Nc1ccc(F)c(Cl)c1)Nc1ccc(Cl)c(Cl)c1 [MMV665953]
MIC (Staphylococcus aureus): 1.25 to 5 µM (≈ 0.417 to 1.67 µg/mL)
MIC [3]: 1.25 to 5 µM (≈ 0.417 to 1.67 µg/mL)

COc1cccc(C=Cc2nc(=O)c3ccccc3o2)c1OC [MMV666693]
Acetyllysine ([4]; S2 Table Metabolomics, metabolite Acetyllysine): 0.1397
N-acetyl-L-ornithine ([4]; S2 Table Metabolomics, metabolite N-acetyl-L-ornithine): 0.2363
N-carbamoyl-L-aspartate ([4]; S2 Table Metabolomics, metabolite N-carbamoyl-L-aspartate): 3.172
NADPH ([4]; S2 Table Metabolomics, metabolite NADPH): 0.2825
dAMP ([4]; S2 Table Metabolomics, metabolite dAMP): -0.08701
dCMP ([4]; S2 Table Metabolomics, metabolite dCMP): 0.2474
dTDP ([4]; S2 Table Metabolomics, metabolite dTDP): -0.7354
dTMP ([4]; S2 Table Metabolomics, metabolite dTMP): -0.4318
dTTP ([4]; S2 Table Metabolomics, metabolite dTTP): -0.1932
dihydroorotate ([4]; S2 Table Metabolomics, metabolite dihydroorotate): 3.894
orotate ([4]; S2 Table Metabolomics, metabolite orotate): -0.9184
DLH ([4]; S2 Table Metabolomics, peptide DLH): -0.06293
DLS/SDL/SID ([4]; S2 Table Metabolomics, peptide DLS/SDL/SID): -0.09731
PD ([4]; S2 Table Metabolomics, peptide PD): 0.5949
PEE ([4]; S2 Table Metabolomics, peptide PEE): -0.05317
PVNF ([4]; S2 Table Metabolomics, peptide PVNF): -0.1239
3-phosphoglycerate ([4]; metabolite 3-phosphoglycerate, S2 Table Metabolomics): 0.2329
ADP-D-glucose ([4]; metabolite ADP-D-glucose, S2 Table Metabolomics): 0.3504
ATP ([4]; metabolite ATP, S2 Table Metabolomics): 0.6585
CDP ([4]; metabolite CDP, S2 Table Metabolomics, change in metabolite level after compound treatment): -0.7718
D-sedoheptulose-1/7-phosphate ([4]; metabolite D-sedoheptulose-1/7-phosphate, S2 Table Metabolomics, change in metabolite level after compound treatment): 0.3935
FAD ([4]; metabolite FAD, S2 Table Metabolomics): 0.6886
GMP ([4]; metabolite GMP, S2 Table Metabolomics, change in metabolite level after compound treatment): 2.325
NAD+ ([4]; metabolite NAD+, S2 Table Metabolomics): 0.3862
NADP+ ([4]; metabolite NADP+, S2 Table Metabolomics): 0.1667
Octoluse Bisphosphate ([4]; metabolite Octoluse Bisphosphate, S2 Table Metabolomics, change in metabolite level after compound treatment): 0.214
Pyroglutamic acid ([4]; metabolite Pyroglutamic acid, S2 Table Metabolomics): -0.09945
UDP-D-glucose ([4]; metabolite UDP-D-glucose, S2 Table Metabolomics): 0.3609
UDP-D-glucuronate ([4]; metabolite UDP-D-glucuronate, S2 Table Metabolomics): 0.4012
UDP-N-acetyl-glucosamine ([4]; metabolite UDP-N-acetyl-glucosamine, S2 Table Metabolomics): 0.3198
UDP ([4]; metabolite UDP, S2 Table Metabolomics, change in metabolite level after compound treatment): -0.8743
UMP ([4]; metabolite UMP, S2 Table Metabolomics, change in metabolite level after compound treatment): -0.7276
UTP ([4]; metabolite UTP, S2 Table Metabolomics, change in metabolite level after compound treatment): -0.635
a-ketoglutarate ([4]; metabolite a-ketoglutarate, S2 Table Metabolomics): -0.04301
citrate/isocitrate ([4]; metabolite citrate/isocitrate, S2 Table Metabolomics, change in metabolite level after compound treatment): -0.1473
cytidine ([4]; metabolite cytidine, S2 Table Metabolomics): 0.3511
dATP ([4]; metabolite dATP, S2 Table Metabolomics): 0.7712
dGMP/AMP ([4]; metabolite dGMP/AMP, S2 Table Metabolomics, change in metabolite level after compound treatment): -0.2164
fumarate ([4]; metabolite fumarate, S2 Table Metabolomics, change in metabolite level after compound treatment): 0.7025
glucose-1/6-phosphate ([4]; metabolite glucose-1/6-phosphate, S2 Table Metabolomics, change in metabolite level after compound treatment): 0.5191
glycerate ([4]; metabolite glycerate, S2 Table Metabolomics, change in metabolite level after compound treatment): -0.06297
guanine ([4]; metabolite guanine, S2 Table Metabolomics, change in metabolite level after compound treatment): 0.6599
guanosine ([4]; metabolite guanosine, S2 Table Metabolomics, change in metabolite level after compound treatment): 0.8246
hypoxanthine ([4]; metabolite hypoxanthine, S2 Table Metabolomics): 0.08871
indole ([4]; metabolite indole, S2 Table Metabolomics): 0.0369
inosine ([4]; metabolite inosine, S2 Table Metabolomics, change in metabolite level after compound treatment): 0.4625
2_3-Diphosphoglyceric acid [4, 6]: 0.5942
4-phosphopantothenate [4, 6]: 0.0573
6-phospho-D-gluconate [4, 6]: 0.4861
FMN [4, 6]: 0.3054
IMP [4, 6]: 0.1618
Pyrophosphate [4, 6]: 0.3262
Sedoheptoluse bisphosphate [4, 6]: 0.378
cyclic-AMP [4, 6]: 0.4484
glutathione disulfide [4, 6]: 0.6375
lactate [4, 6]: 0.2118
myo-inositol [4, 6]: 0.3466
nicotinate ([4]; metabolite nicotinate, S2 Table Metabolomics): 0.3154
ornithine ([4]; metabolite ornithine, S2 Table Metabolomics): 0.1755
phosphoenolpyruvate ([4]; metabolite phosphoenolpyruvate, S2 Table Metabolomics): 0.1481
pyruvate ([4]; metabolite pyruvate, S2 Table Metabolomics, change in metabolite level after compound treatment): -0.005171
ribose-phosphate ([4]; metabolite ribose-phosphate, S2 Table Metabolomics): 0.3602
sarcosine/alanine ([4]; metabolite sarcosine/alanine, S2 Table Metabolomics, change in metabolite level after compound treatment): 0.4257
sn-glycerol-3-phosphate ([4]; metabolite sn-glycerol-3-phosphate, S2 Table Metabolomics): 0.6187
succinate/methylmalonic acid ([4]; metabolite succinate/methylmalonic acid, S2 Table Metabolomics, change in metabolite level after compound treatment): 0.3609
uridine ([4]; metabolite uridine, S2 Table Metabolomics, change in metabolite level after compound treatment): -0.1766
xanthosine ([4]; metabolite xanthosine, S2 Table Metabolomics, change in metabolite level after compound treatment): 0.5199
pEC50 (P. falciparum): 7.62
PfEg5 ATPase inhibition in words (PfEg5): selective inhibitor
PvEg5 ATPase inhibition in words (PvEg5): selective inhibitor

O=C(CC1NCCCC1O)Cn1cnc2cc(Br)c(Cl)cc2c1=O (centres unmarked) [halofuginone]
PfProRS % inhibition [5]: 100%

ivermectin [reference compound]
A. ceylanicum positive control effect (A. ceylanicum L3 larvae): caused death of all worms
T. muris positive control effect (T. muris L1 larvae): caused death of all worms
